Measured values taken from US20220323594A1, “LIPIDATED CATIONIC PEPTIDE-PEG COMPOSITIONS FOR NUCLEIC ACID DELIVERY” (NUTCRACKER THERAPEUTICS, INC., priority 2019, published 2022).

Key:
Balb/c mice [1] = assay: In vivo organ-specific bioluminescence (biodistribution of Fluc) following IV administration; details: for Total Flux (p/s) Liver: dissected liver; for Total Flux (p/s) Lung: dissected lung; for Total Flux (p/s) Spleen: dissected spleen
Procedure: Amino lipidated peptoid delivery vehicles are effective for in vivo administration of Fluc mRNA to Balb/c mice (n=3) through multiple routes of administration. Briefly, representative amino lipidated peptoid/Fluc formulations (prepared at a 5:1 mass ratio of amino lipidated peptoid:mRNA unless noted, with 2% w/w DMG-PEG2000) were administered at a dose of 0.5 mg/kg via a tail-vein injection, and the resulting bioluminescence was quantified after 8 hours. […] Organ-specific bioluminescence was quantified by sacrificing the treated animal, dissecting out the organs of interest, and separately quantifying the resulting bioluminescence. […] FIG. 7C depicts a bar chart quantifying the organ-specific biodistribution of the formulations as a function of total photon flux.

[2] = MTT viability assay after treatment with Fluc mRNA/amino lipidated peptoid formulations; assay type: cell-based; details: human, HeLa cells
Summary of the method: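 Viability relative to untreated cells came from the formazan read-out after 2 h with 1.5 mg/mL MTT and acidic isopropanol/Triton lysis. The MTT step followed an 8 h exposure to 100 ng/well Fluc mRNA in 5:1 peptoid:mRNA, 2% DMG-PEG2000 formulations and a further 48 h of culture.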

HeLa cells [3] = assay: In vitro Fluc expression with variable peptoid:mRNA mass ratio, 2% DMG-PEG2000; assay type: cell-based; details: 24 h; for Observed Luciferase Expression (RLU) for Given Formulation Mass Ratio 2:1: 2% (w/w) DMG-PEG2000, peptoid:mRNA 2:1; for Observed Luciferase Expression (RLU) for Given Formulation Mass Ratio 3.5:1: 2% (w/w) DMG-PEG2000, peptoid:mRNA 3.5:1; for Observed Luciferase Expression (RLU) for Given Formulation Mass Ratio 5:1: 2% (w/w) DMG-PEG2000, peptoid:mRNA 5:1; for Observed Luciferase Expression (RLU) for Given Formulation Mass Ratio 7.5:1: 2% (w/w) DMG-PEG2000, peptoid:mRNA 7.5:1
Summary of the method: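 HeLa cells exposed 24 hours to amino lipidated peptoid/Fluc mRNA formulations containing 2% w/w DMG-PEG2000 (relative to peptoid), across peptoid:mRNA mass ratios of 2:1 to 7.5:1. Read-out: average luciferase bioluminescence (RLU).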

[4] = Dynamic light scattering (DLS) of mRNA/peptoid formulations: particle size and polydispersity; assay type: physicochemical; details: Fluc mRNA/peptoid formulation; for Size PDI: size polydispersity index by DLS, 5:1 mass ratio; for Size (nm): volume average particle size/diameter by DLS, 5:1 mass ratio peptoid:cargo
Summary of the method: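 Volume-average particle diameter (nm) and PDI were measured by dynamic light scattering. Formulations combined peptoid diluted in ethanol with Fluc mRNA in pH 5.5 PBS at 1:3 by volume, mixed by pipetting at 5:1 peptoid:mRNA by mass.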

Balb/c mice [5] = assay: In vivo whole-body expression of Fluc following IV administration; details: Balb/c mice (n=3), IV tail-vein, 0.5 mg/kg, 5:1 peptoid:mRNA, 2% w/w DMG-PEG2000, 8 hours
Procedure: Amino lipidated peptoid delivery vehicles are effective for in vivo administration of Fluc mRNA to Balb/c mice (n=3) through multiple routes of administration. Briefly, representative amino lipidated peptoid/Fluc formulations (prepared at a 5:1 mass ratio of amino lipidated peptoid:mRNA unless noted, with 2% w/w DMG-PEG2000) were administered at a dose of 0.5 mg/kg via a tail-vein injection, and the resulting bioluminescence was quantified after 8 hours.

[6] = mRNA encapsulation by fluorescence of Qubit RNA HS dye before and after lysis with Triton X-100; assay type: physicochemical; details: percentage of mRNA encapsulation; Fluc mRNA/peptoid formulation, 5:1 mass ratio
Summary of the method: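 Encapsulation was measured by comparing Qubit RNA HS fluorescence of intact particles with that after Triton X-100 lysis. Particles were amino-lipidated cationic peptoids complexed with firefly luciferase mRNA at 5:1 peptoid:cargo by mass, mixed by pipetting.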

HeLa cells [7] = assay: In vitro expression of firefly luciferase (Fluc) after treatment with Fluc mRNA/amino lipidated peptoid formulations, no PEG or 2% DMG-PEG2000; assay type: cell-based
Summary of the method: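 HeLa cells received 100 ng/well Fluc mRNA complexed with amino lipidated peptoid at 5:1 peptoid:mRNA (w/w), either peptoid alone or with 2% w/w DMG-PEG2000. Expression quantified as RLU by luminescence at 6 and 24 h.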

Balb/c mice [8] = assay: In vivo expression of Fluc following subcutaneous or intramuscular administration; details: for Total Flux (photons/sec) I.M. (0.05 mpk): intramuscular, mRNA 0.05 mpk; for Total Flux (photons/sec) S.C. (0.1 mpk): subcutaneous, mRNA 0.1 mpk
Procedure: In addition to IV administration, amino lipidated peptoids are also effective for local administration of mRNA through subcutaneous (S.C.) or intramuscular (I.M.) routes of administration. […] For these examples, mRNA was administered at a dose of 0.1 milligrams/kilogram (mpk) for subcutaneous or 0.05 mpk for intramuscular. In these cases, the overall expression was higher following intramuscular injections. […] Additional experiments were carried out to assess any variability in biodistribution as a function of the loading mass ratio of amino lipidated peptoid to the Fluc mRNA. FIG. 8A depicts a plot of total photon flux for formulations of amino lipidated peptoid compound 28 with 2% DMG-PEG 2000 and Fluc mRNA at different peptoid:mRNA ratios (1:1, 2:1, 5:1, 7.5:1 and 10:1).

[9] = no PEG, peptoid:Fluc mRNA 5:1 w/w, 100 ng/well, 6 h of treatment
[10] = no PEG, peptoid:Fluc mRNA 5:1 w/w, 100 ng/well, 24 h of treatment
[11] = with 2% (w/w) DMG-PEG2000, peptoid:mRNA 5:1, 6 h after treatment
[12] = with 2% (w/w) DMG-PEG2000, peptoid:mRNA 5:1, 24 h after treatment

| Size PDI [4] | Size (nm) [4] [nm] | % Encapsulation [6] [%] | Compound | Total Flux (p/s) Liver (Balb/c mice [1]) [p/s] | Total Flux (p/s) Lung (Balb/c mice [1]) [p/s] | Total Flux (p/s) Spleen (Balb/c mice [1]) [p/s] | viability at 8 h, 500 ng/well ([2]; Relative Viability (%) 2% PEG) [%] | viability at 8 h, 500 ng/well ([2]; Relative Viability (%) No PEG) [%] | Observed Luciferase Expression (RLU) for Given Formulation Mass Ratio 2:1 (HeLa cells [3]) [RLU] | Observed Luciferase Expression (RLU) for Given Formulation Mass Ratio 3.5:1 (HeLa cells [3]) [RLU] | Observed Luciferase Expression (RLU) for Given Formulation Mass Ratio 5:1 (HeLa cells [3]) [RLU] | Observed Luciferase Expression (RLU) for Given Formulation Mass Ratio 7.5:1 (HeLa cells [3]) [RLU] | Total Flux (photons/sec), whole body (Balb/c mice [5]) [photons/sec] | Luciferase Expression (RLU) 6 h (HeLa cells [7]; [9]) [RLU] | Luciferase Expression (RLU) 24 h (HeLa cells [7]; [10]) [RLU] | Luciferase Expression (RLU) 6 h (HeLa cells [7]; [11]) [RLU] | Luciferase Expression (RLU) 24 h (HeLa cells [7]; [12]) [RLU] | Total Flux (photons/sec) I.M. (0.05 mpk) (Balb/c mice [8]) [photons/sec] | Total Flux (photons/sec) S.C. (0.1 mpk) (Balb/c mice [8]) [photons/sec] |
| --- | --- | --- | --- | --- | --- | --- | --- | --- | --- | --- | --- | --- | --- | --- | --- | --- | --- | --- | --- |
| 0.009 | 157 | 92.6 | CCCCCCCCCCN(CC(N)=O)C(=O)CN(CCCCCCCCCC)C(=O)CN(CCc1ccccc1)C(=O)CN(CCc1ccccc1)C(=O)CN(CCN)C(=O)CN(CCc1ccccc1)C(=O)CN(CCc1ccccc1)C(=O)CNCCN [Compound 10] | 5.85E+05 | 5.14E+06 | 2.17E+06 | 108 | 101 | 5.57E+03 | 1.23E+04 | 3.51E+04 | 3.57E+02 | 1.04E+07 | 1.88E+03 | 7.01E+02 | 2.21E+02 | 2.43E+02 | 9.01E+05 | 1.40E+05 |
| 0.128 | 150 | 100.3 | CCCCCCCCCCN(CC(N)=O)C(=O)CN(CCCCCCCCCC)C(=O)CN(CCc1ccccc1)C(=O)CN(CCc1ccccc1)C(=O)CN(CCN)C(=O)CN(CCc1ccccc1)C(=O)CN(CCc1ccccc1)C(=O)CN(CCN)C(=O)CN(CCc1ccccc1)C(=O)CN(CCc1ccccc1)C(=O)CNCCN [Compound 2] | 1.40E+06 | 2.46E+07 | 3.39E+06 | 92.6 | 90.6 | 2.45E+04 | 1.80E+04 | 2.81E+04 | 1.49E+03 | 1.37E+07 | 2.35E+02 | 1.35E+02 | 5.40E+01 | 1.17E+02 | 1.27E+05 | 8.31E+04 |
